Laboratory results published in patent US10265327B2, “V1A antagonists to treat phase shift sleep disorders” (Hoffmann-La Roche Inc., priority 2013, dated 2019).

System: C57BL/6J mice
Assay: Behavioural circadian responses (phase shift, period, alpha, locomotor activity) after single oral administration, release into constant darkness
Format: in vivo, mouse
Description: In all studies described below, male young-adult C57BL/6J mice (4 weeks old at the beginning of experiments) were used. Animals were exposed to a light-dark cycle (LD) 12:12 (lights on from 8 h to 20 h geographical time; light intensity at 200 lux; during dark period dim red light of 5 lux) in individual cages with food and water ad libitum and temperature (22±1° C.) and humidity (55%±5%) controlled. LD cycle was represented as zeitgeber times (ZT) where ZT0 represents the lights on and ZT12 lights off. When animals were exposed to constant darkness conditions (DD), circadian times (CT) were used as time point references, where CT12 corresponds to activity onset.
It was evaluated whether there is a phase window of sensitivity to the V1a receptor antagonist trans-8-chloro-5-methyl-1-(4-pyridin-2-yloxycyclohexyl)-4,6-dihydro-[1,2,4]triazolo[4,3-a][1,4]benzodiazepine (example 1). A group of animals was treated at 2 temporal points (one during the day and one at night). Animals were exposed to LD cycle conditions (at least for 10 days) to obtain a baseline of the rhythm of locomotor activity. 4 groups were selected: (group 1) Sham manipulations, animals into which the cannula was introduced in the oral cavity without any solution delivery; (group 2) vehicle, and […] administration of the V1a receptor antagonist trans-8-chloro-5-methyl-1-(4-pyridin-2-yloxycyclohexyl)-4,6-dihydro-[1,2,4]triazolo[4,3-a][1,4]benzodiazepine (doses of 10 mg/kg and 30 mg/kg). Administrations were performed (orally) at ZT/CT12 (lights off/activity onset; sham, n=5; vehicle n=5; 10 mg/kg n=5; and 30 mg/kg n=5). After the first manipulation at ZT/CT12, animals were immediately exposed to DD conditions and remained at least for 10 days more for behavioural analysis, and then re-entrained to a 12-12 LD cycle, for a minimum of 10 days, to be re-exposed to the second experimental manipulation at ZT/CT0 (lights on/activity offset; sham, n=3; vehicle n=3; 10 mg/kg n=5; and 30 mg/kg n=5).
A new group of animals was treated at another 2 temporal points different from the previous experiment; ZT/CT6 (6 h after lights on/mid rest period; sham, n=3; vehicle n=4; and 30 mg/kg n=5) and ZT/CT18 (6 h after lights off/mid activity period; sham, n=3; vehicle n=4; and 30 mg/kg n=5). For this experiment (time points ZT/CT6 and ZT/CT18), trans-8-chloro-5-methyl-1-(4-pyridin-2-yloxycyclohexyl)-4,6-dihydro-[1,2,4]triazolo[4,3-a][1,4]benzodiazepine was administrated only at the 30 mg/kg dose. Thus, 3 groups were selected: (Group 1) Sham manipulations, (Group 2) vehicle administrations and (Group 3) trans-8-chloro-5-methyl-1-(4-pyridin-2-yloxycyclohexyl)-4,6-dihydro-[1,2,4]triazolo[4,3-a][1,4]benzodiazepine (30 mg/kg). After manipulations, animals were immediately exposed to DD conditions and remained at least for 10 days more for behavioural analysis, and then re-entrained to a 12-12 LD cycle for a minimum of 10 days.
The locomotor activity rhythms were measured using infra-red detectors on the top of the cages and/or running wheels.
Phase shifts: Phase shifts were measured by fitting two regression lines to the onsets of locomotor activity for 10 days before and 10 days after the manipulation (ClockLab; Actimetrics, Evanston, Ill., USA). A computer algorithm was used to identify the onset of the main period of daily locomotor activity (ClockLab). The data collected on the day following the manipulation (sham, vehicle or drug administration) was excluded from the line fits to ensure that the circadian phase was in steady state. Phase shift was defined as the difference (in hours) between the pre-stimulus line and the post-stimulus line. The magnitude of the phase shifts was fitted by linear regression to the onsets, considering 10 cycles before (LD) and 10 cycles after compound administration when animals were released in constant darkness (DD; Aschoff Type II procedure to evaluate phase shifts; Mrosovsky, 1996b). […]

`CN1Cc2cc(Cl)ccc2-n2c(nnc2[C@H]2CC[C@H](Oc3ccccn3)CC2)C1` [Example 1, trans-8-chloro-5-methyl-1-(4-pyridin-2-yloxycyclohexyl)-4,6-dihydro-[1,2,4]triazolo[4,3-a][1,4]benzodiazepine] was tested, and the “locomotor activity change after administration” value (10 mg/kg or 30 mg/kg oral, ZT/CT12 and ZT/CT0) was “No significant locomotor activity change”, the “endogenous period of locomotor activity” value (10 mg/kg or 30 mg/kg oral, ZT/CT12 and ZT/CT0, constant darkness) was “no changes” and the “endogenous period of locomotion” value (30 mg/kg oral, ZT/CT18 and ZT/CT6) was “not significantly different between groups”. The “alpha (duration of active period), difference between groups” value (30 mg/kg oral, ZT/CT18 or ZT/CT6) was “no differences between groups were observed”, the “behavioural phase shifts (circadian phase)” value (single administration 30 mg/kg oral, at ZT/CT18 and ZT/CT6) was “no significant effect on the circadian phase” and the “behavioural phase-shifts (circadian phase)” value (single oral administration, 10 mg/kg or 30 mg/kg, at ZT/CT12 and ZT/CT0) was “no effect on the circadian phase”. The “alpha increase (pre vs. post)” value (treated at ZT/CT0, 10 and 30 mg/kg oral, effect vs groups not statistically significant) was roughly 2 h and the “alpha (duration of active period), difference between groups” value (treated at ZT/CT12, 10 and 30 mg/kg oral) was “no differences between groups were observed”.
